# Where two headings read alike, the source gives them in different places.
# Tests used:
# [1] = test system: IL-1β; test: PBMC assay: inhibition of IL-1β release after LPS stimulation (MSD); type: cell-based; settings: PBMC, human PBMCs, 100 ng/ml LPS for 6 hrs, MSD, 96 well plates, read-out: IL1β IC50
# Protocol: Peripheral venous blood s collected from health individuals and human peripheral blood mononuclear cells (PBMCs) ere isolated from blood by Ficoll Histopaque (Sigma-Aldrich, A0561) density gradient centrifugation. After isolation, PBMCs were stored in liquid nitrogen for later use. Upon thawing, PBMC cell viability was determined in growth medium (RPMI media supplemented with 10% fetal bovine serum, 1% Pen-Strep and 1% L-glutamine). […] PBMCs were added at a density of 7.5×10^4 cells per well and incubated for 30 min in a 5% CO2 incubator at 37° C. LPS stimulation was performed by addition of 100 ng/ml LPS (final concentration, Invivogen, tlrl-smlps) for 6 hrs followed by collection of cellular supernatant and the analysis of IL-1β (μM) and TNF cytokines levels (μM) via MSD technology according to manufacturers' guidelines (MSD, K151A0H).
# (§1) The IC50 values (for IL-1β) and EC50 values (TNF) were obtained on compounds of the invention/examples, and are depicted in the following table: […]
# [2] = test system: TNF; test: PBMC assay: TNF cytokine levels after LPS stimulation (MSD); type: cell-based; settings: PBMC, human PBMCs, 100 ng/ml LPS for 6 hrs
# Protocol: Peripheral venous blood s collected from health individuals and human peripheral blood mononuclear cells (PBMCs) ere isolated from blood by Ficoll Histopaque (Sigma-Aldrich, A0561) density gradient centrifugation. After isolation, PBMCs were stored in liquid nitrogen for later use. Upon thawing, PBMC cell viability was determined in growth medium (RPMI media supplemented with 10% fetal bovine serum, 1% Pen-Strep and 1% L-glutamine). Compounds were spotted in a 1:3 serial dilution in DMSO and diluted to the final concentration in 30 μl medium in 96 well plates (Falcon, 353072). PBMCs were added at a density of 7.5×10^4 cells per well and incubated for 30 min in a 5% CO2 incubator at 37° C. LPS stimulation was performed by addition of 100 ng/ml LPS (final concentration, Invivogen, tlrl-smlps) for 6 hrs followed by collection of cellular supernatant and the analysis of IL-1β (μM) and TNF cytokines levels (μM) via MSD technology according to manufacturers' guidelines (MSD, K151A0H).
# as §1
Compound,"IC50 ([1]; Homo sapiens, 6 h) [µM]","EC50 ([2]; Homo sapiens, 6 h) [µM]",IC50 [1] [µM],EC50 [2] [µM]
CC(C)c1nn(CC(=O)Nc2ccc(=O)n(C)c2)c(=O)c2ccc(C(C)(F)F)cc12 [X-1066],0.156,6.78,,
CC(C)c1nn(CC(=O)N[C@H]2CCc3nncn3C2)c(=O)c2ccc(C(F)(F)F)cc12 [Final Cpd X55],0.46,> 20,,
"CC[C@]1(O[Si](C)(C)C(C)(C)C)C[C@@H](NC(=O)Cn2nc(C(C)C)c3cc(Br)ccc3c2=O)C1 [X-1089, 2-(6-bromo-4-isopropyl-1-oxophthalazin-2(1H)-yl)-N-((1r,3s)-3-((tert-butyldimethylsilyl)oxy)-3-ethylcyclobutyl)acetamide]",,,> 20,> 20
CC(O)c1nn(CC(=O)Nc2ccc3nncn3c2)c(=O)c2ccc(C(F)(F)F)cc12 (stereo not shown) [Final Cpd X66],0.67,> 20,,
CC(C)c1nn(CC(=O)NC2CCC(C)(C)OC2)c(=O)c2ccc(C(F)(F)F)cc12 (stereo not shown) [Final Cpd X128],2.95,> 20,,
CCc1nn(CC(=O)N[C@H]2C[C@@](C)(O)C2)c(=O)c2ccc(C(F)F)cc12 [Final Cpd 17],0.54,> 10,,
COC(c1nn(CC(=O)Nc2ccc3nncn3c2)c(=O)c2ccc(C(F)(F)F)cc12)C(F)(F)F (stereo not shown) [Final Cpd X135],3.44,> 20,,
O=C(Cn1nc(C2CC2)c2cc(Br)ccc2c1=O)Nc1ccc2nncn2n1 [X-1001],0.224,> 20,,
"CC(C)c1nn(CC(=O)Nc2ccc3ncn(C)c3n2)c(=O)c2ccc(C(F)(F)F)cc12 [Final Cpd X47, 2-(4-isopropyl-1-oxo-6-(trifluoromethyl)phthalazin-2(1H)-yl)-N-(3-methyl-3H-imidazo[4,5-b]pyridin-5-yl)acetamide]",0.394,> 20,,
CC(C)c1nn(CC(=O)Nc2ccnnc2)c(=O)c2ccc(C(F)(F)C(F)(F)F)cc12 [X-1053],3.18,> 20,,
Cn1nc(NC(=O)Cn2nc(C3CC3)c3cc(Cl)ccc3c2=O)ccc1=O [X-1072],1.4,> 20,,
CCc1nn(CC(=O)N[C@H]2CC[C@H](O)CC2)c(=O)c2ccc(C(F)(F)F)cc12 [Final Cpd 30],1.29,> 10,,
CC(C)c1nn(CC(=O)Nc2cnn(C)c(=O)c2)c(=O)c2ccc(C(F)(F)F)cc12 [Final Cpd X151],7.45,> 20,,
CC(C)c1nn(CC(=O)Nc2ccc3nncn3c2)c(=O)c2ccc(C(C)(F)F)cc12 [X-1063],0.016,1.85,,
CCc1nn(CC(=O)Nc2c(-c3ccnc(OC)c3)ccc3c2CCC3)c(=O)c2ccc(Br)cc12 [X-1013],> 20,> 20,,
Cc1cn2cc(NC(=O)Cn3nc(C(C)C)c4cc(C(F)(F)F)ccc4c3=O)ccc2n1 [Final Cpd X27],0.189,> 20,,
CCN1C[C@H](NC(=O)Cn2nc(C(C)C)c3cc(C(F)(F)F)ccc3c2=O)CC(F)(F)C1 [Final Cpd X117],2.11,> 20,,
"CC(C)c1nn(CC(=O)N[C@H]2CC[C@H]2O)c(=O)c2ccc(C(F)(F)F)cc12 (single isomer, unassigned) [Final Cpd X124]",2.76,> 20,,
"CCN1CCC[C@H](NC(=O)Cn2nc(C(C)C)c3cc(C(F)(F)F)ccc3c2=O)C1=O (single isomer, unassigned) [Final Cpd X129]",3.07,> 20,,
COC(C)c1nn(CC(=O)Nc2ccncn2)c(=O)c2ccc(Br)cc12 (stereo not shown) [X-1016],0.819,> 20,,
CC(=O)c1nn(CC(=O)Nc2ccc3nncn3c2)c(=O)c2ccc(C(F)(F)F)cc12 [Final Cpd X58],0.551,> 20,,
CC(C)c1nn(CC(=O)N[C@H]2C[C@@](C)(O)C2)c(=O)c2ccc(C(C)(F)F)cc12 [X-1062],0.09,> 20,,
CC(C)c1nn(CC(=O)Nc2ccc3nccn3c2)c(=O)c2ccc(C(C)(F)F)cc12 [X-1067],0.175,13.2,,
CC(C)c1nn(CC(=O)N[C@H]2CCCN3CCC[C@@H]23)c(=O)c2ccc(C(F)(F)F)cc12 [Final Cpd X60],0.585,> 20,,
CC(C)c1nn(CC(=O)Nc2cnc3nccn3c2)c(=O)c2ccc(C(F)(F)F)cc12 [Final Cpd X73],0.792,> 20,,
CC(C)c1nn(CC(=O)Nc2ccc3nncn3c2)c(=O)c2c(F)cc(C(F)(F)F)cc12 [Final Cpd X71],0.751,> 20,,
